# Test results taken from patent US20210154156A1, “APPLICATION OF COMPOUND IN INHIBITING AB ACCUMULATION AND TREATING ALZHEIMER'S DISEASE” (NORTHEAST NORMAL UNIVERSITY, priority 2018, published 2021).
# Where a name gives a salt, the structure may show the parent alone.
# How the values were obtained:
# [1] = biological target: T1, Aβ42 monomers (Homo sapiens, UniProt P05067); assay: Thioflavin T test (ThT) of Aβ42 monomer aggregation; format: biochemical; details: Aβ 20 uM; drug 10, 20, 40 uM; 37° C. 24 hours; concentration-dependent
# T1 construct: purchased Nanjing Elutrian Biological Co. Ltd
# T1 sequence (P05067 672-713 limits assumed): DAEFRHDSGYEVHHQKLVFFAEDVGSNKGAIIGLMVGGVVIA
# Protocol: The protein A beta protein was provided by Nanjing Elutrian Biological Co. Ltd. and the purity was greater than 95%. The compound macroflavin was provided by Shanghai Yuan-Ye biological company. The Aβ monomer powder was stored at −80° C., standing for 30 minutes at room temperature for the first time, then diluted with hexafluoroisopropanol (HFIP) to 1.0 mg/mL. It stood for at least 2 hours, carrying out ultrasonic 30 minutes to destroy the existing multi-polymer structure, standing and drying at low temperature, was immediately stored at −20° C. Thioflavin T was purchased from Sigma (cargo number T3516-5 G). 0.032 g of THT powder was weighed and dissolved in 20 mL of 20 mM Tris-HCl (pH 7.4) solution to obtain a 5 mM THT mother liquor, and was diluted to 5 uM when used.
# [2] = test system: APP/PS1 double transgenic mice; assay: Morris water maze in APP/PS1 transgenic mice; format: in vivo; details: intragastric administration for 2 months
# Source text: (§1) The wild-type (WT) and APP/PS1 double transgenic mice used in the experiment of the present invention were purchased from the Model Animal Research Institute of Nanjing University, and the mouse genes were identified in strict accordance with the PCR method provided.
# In the Morris water maze experiment, the mouse water maze training was two days (data not recorded). The mice were placed into the pool from 4 entry points (quadrants) facing the pool wall. The platform was hidden 1 cm underwater, and the water temperature was kept at 23° C. , and the training lasted for 2 minutes. […] The experiment phase started from the third day, and the experiment was continued for 6 days. Each mouse was tested once a day. During the experiment, the mice were respectively placed into the pool from 4 entry points (quadrants) facing the pool wall.
# The time was recorded from the mice entering the water to the mice finding and staying in the underwater hidden platform. That was called as the incubation period. On the eighth day, the platform was removed, and each mouse was launched from the farthest position of the original platform and swam freely for 2 minutes. The swimming time of the animal in the target quadrant (the area where the platform located), the number of times of traversing the platform, the path and other main parameters were tracked and recorded by the miniature camera and analyzed.
# [3] = biological target: T2, formed Aβ fibers (Homo sapiens, UniProt P05067); assay: Depolymerization of the formed Aβ fibrous structure (ThT and TEM); format: biochemical
# T2 construct: purchased Nanjing Elutrian Biological Co. Ltd
# T2 sequence (P05067 672-713 limits assumed): as above
# Protocol: The preparation was the same as that shown in Examples 1 and 2, except that the Aβ42 protein was first incubated at 37° C. for 48 hours, then the drug effect was added, the sample was taken at −20 ° C. every 6 hours, after 48 hours, using all of the samples for ThaT and TEAM tests.
# [4] = test system: human neuroma blasts SH-SY5Y; assay: MTT test of Aβ42 oligomer-mediated neurotoxicity in SH-SY5Y; format: cell-based
# Protocol: The cells used in the Aβ42 oligomer-mediated neurotoxicity damage experiment were human neuroma blasts SH-SY5Y, incubated in DME medium of 10% FBS at 37° C. The control group without Aβ protein and the experimental group with added drug were cultured overnight at 37° C. with slow shaking, and transferred to a 96-well cell culture plate containing SH-SY5Y. The final concentration of Aβ protein was 1 uM and the final concentration of drug was 0.25 uM. 0.5 uM, 1 uM and 2 uM, three parallel holes for each concentration, action time 3 hours, MTT method 490 nm wavelength tested 5 times to analyze cell proliferation.
# [5] = test system: APP/PS1 double transgenic mice; assay: Y maze in APP/PS1 transgenic mice; format: in vivo; details: after two months of treatment
# Source text: as §1
# In the Y maze experiment, three black striped long arms were marked A, B, and C with the same appearance were combined in a Y shape. The mouse was put in the A arm, and recorded as an error if it turned back from the other long arm during free movement, such as ABA, BCB, etc., recalculated with this arm as the starting point, such as ABACBABCBA. The experiment time for each mouse lasted 8 minutes. When the experiment was completed, the Y labyrinth was cleaned and disinfected with alcohol, and the experiment was performed on the next mouse after drying.
# [6] = test system: APP/PS1 transgenic mice; assay: Thioflavin S and Congo red staining of brain Aβ plaques in APP/PS1 transgenic mice; format: in vivo
# Source text: as §1
# 10-month-old AD mice were anesthetized with 0.4% pentobarbital sodium. Blood was taken by perfusing the atria. 4% paraformaldehyde was perfused for whole body fixation. The brain tissue was taken and weighed. The hemibrains were put into 4% paraformaldehyde solution and used for histopathology. The other half was stored in a cryotube at −80° C. for biochemical analysis. The brain tissues fixed with 4% paraformaldehyde were embedded in wax and sliced. The plaques in the cerebral cortex and hippocampus were stained with Thioflavin S and Congo Red. Pathological images were obtained by digital microscope and fluorescence microscope and quantitatively analyzed.
# [7] = biological target: T3, Aβ42 monomer (Homo sapiens, UniProt P05067); assay: Transmission electron microscopy (TEM) of Aβ42 fiber formation; format: biochemical; details: 37° C. 24 hours; concentration-dependent
# T3 construct: purchased Nanjing Elutrian Biological Co. Ltd
# T3 sequence (P05067 672-713 limits assumed): as above
# Protocol: The preparation was the same as that of Example 1. Then, the Aβ protein sample was incubated at 37° C. for 24 hours, dropped on the surface of a 300 mesh carbon film copper mesh, dried in air, dyed with 2% (w/v) phosphotungstate sodium salt negative for 30 seconds, standing at room temperature for about 4 hours, then the JEM-100CXII transmission electron microscope system (JEOL Inc., Tokyo, Japan) was used to detect and take pictures with an acceleration voltage of 80 kV.
# [8] = biological target: T4, Aβ protein monomer (Homo sapiens, UniProt P05067); assay: Circular dichroism spectrum experiment (CD) of Aβ β-sheet formation; format: biochemical; details: Aβ 20 uM; drug 10, 20, 40 uM; 12 hours 37° C.
# T4 construct: purchased Nanjing Elutrian Biological Co. Ltd
# T4 sequence (P05067 672-713 limits assumed): as above
# Protocol: The A beta monomer was mixed with a drug, the final concentration of Aβ was 20 uM, the final concentrations of the drug were 0 uM, 10 uM, 20 uM and 40 uM respectively, and after 12 hours incubation at 37° C., a J-810 spectrometer (Jayasco, Japan) was used for detection. The wavelength range was 190-250 nm, the resolution was 0.5 nm, the spectrum width was 2 nm, the scanning speed was 100 nm/min, the response time was 1 s, and the measuring temperature was normal temperature. The solution was added to a quartz cuvette with an optical path of 0.1 mm for measurement, and each experiment was repeated three times. Subtracting the buffer curve from each scan curve as the experimental result, each experiment was repeated three times, and the average value was given.
Compound,ThT fluorescence intensity (Aβ42 monomer aggregation) vs control group without medicine [1],Incubation period for AD mice to find the platform (Morris water maze) ([2]; 8-month-old APP/PS1 mice),Number of times AD mice crossed the virtual platform (Morris water maze) ([2]; platform removed),"ThT fluorescence intensity of pre-formed Aβ fibers vs non-dosing control ([3]; Aβ42 pre-incubated 37° C. 48 hours, then drug, sampled every 6 hours to 48 hours)",Depolymerization of formed Aβ fibers (TEM) ([3]; after 48 hours of treatment),"MTT absorbance value (protection from Aβ42 oligomer-mediated neurocytotoxicity) vs control group without drug ([4]; Aβ 1 uM, drug 0.25, 0.5, 1, 2 uM, 3 hours, 490 nm)",MTT effect compared with positive control curcumin ([4]; when the concentration was low),Y maze effect compared with Arishen treatment group [5],"Correct rate in Y maze of AD mice ([5]; saline AD about 58%, WT about 82%)",Plaque effect compared with positive control nourishing blood serum brain drug group ([6]; 10-month-old AD mice),"Number of stained Aβ deposition plaques in cortex or hippocampus (Thioflavin S, Congo red) vs normal saline AD mice ([6]; 10-month-old AD mice after 2 months intragastric administration)","Aβ protein fiber density, length and width (TEM) [7]",Formation of the β-sheet structure of Aβ monomer (CD) [8],Effect on improving symptoms of AD mice (Morris water maze) [2]
"Cc1cc(O)c2c(c1)C(=O)c1cc(O)cc(O)c1C2=O [emodin, 1,3,8-trihydroxy-6-methylanthracene-9, 10-dione]",significantly decreased,significantly reduced,significantly improved,remained basically unchanged,could not depolymerize,increased significantly,stronger than that of the positive control curcumin,better than the Arishen treatment group,increased significantly,slightly better,statistically significant reduction,decreased significantly,significantly reduce,–
"COc1cc2c(cc1OC)C(=O)C(CC1CCN(Cc3ccccc3)CC1)C2 (stereo not drawn) [Arishen, donepezil hydrochloride, reference compound]",–,–,–,–,–,–,–,–,–,–,–,–,had no effect,limited effect
